Laboratory results published in US8314103B2, “Pyridyl derivatives, their preparation and use” (Piramal Enterprises Limited, priority 2007, dated 2012).

Legend:
HIF-1α = HIF-1α assay (luciferase reporter gene, U251 HRE / U251 pGL3 cells); type: cell-based, human; conditions: SI greater than 4 indicates specificity towards HIF-1α inhibition under hypoxia conditions
Source text: • U251-HRE: Genetically engineered U251 human glioma cells stably expressing a recombinant vector (pGL2-TK-HRE) in which the Luciferase reporter gene was under the control of hypoxia-responsive element and G418 vector. • U251-pGL3: To exclude compounds that can inhibit luciferase expression in non-specific and/or HIF-1 independent fashion a control cell line genetically engineered U251 human glioma cells stably expressing a recombinant vector (pGL3), U251-pGL3 was used.
U251 HRE and U251 pGL3 cells were grown and maintained in RPMI1640 medium supplemented with 5% FBS. Cells were seeded in 96 well plate at a density of 1.5×10^4 cells in 180 μL per well and incubated at 37° C., 5% CO2 overnight. […] The plates were incubated under two sets of conditions which were as follows.
• (<1% oxygen (O2), 5% CO2 and 94% Nitrogen, incubation temp 37° C.) Condition 2: Normoxia • (21% O2, 5% CO2 and 74% Nitrogen, incubation temp 37° C.)
Plates were incubated for 24 hours, thereafter cell were lysed with Lysis Buffer followed by addition of substrate. Plates were read for luminescence on POLARSTAR™ (or TOPCOUNT™).
To identify the specificity of the compounds of present invention to inhibit HIF-1α under hypoxia conditions, Specificity Index (SI) was calculated as follows:
An observed SI of greater than 4 indicates specificity towards HIF-1α inhibition under hypoxia conditions.

Cytotoxicity assay (MTS) = type: cell-based; conditions: human, panel of HIF over expressing cell lines, average across a panel of HIF overexpressing cell lines, read-out: Cytotoxic Potential (MTS/PI), average IC50
Method: Cytotoxicity and Anti-proliferative Assay
Cytotoxic potential of compounds of the present invention was tested using various HIF over expressing cell lines (source and culture conditions as described in Table-1 herein above). Cells were seeded at a density of 3000-5000 cells per well in 180 μL volume in transparent 96 well tissue culture plate (NUNC, USA) and incubated for 12-18 hours at 37° C., 5% CO2. Subsequently, 20 μL of compounds of present invention (diluted in medium at concentrations ranging from 30 μM, 10 μM, 3 μM, 1 μM, 0.3 μM or 0.1 μM) were added to each well. Cells were then incubated for 48 hours at 37° C., 5% CO2. Following the incubation, 20 μL of MTS solution with PMS (Promega) was added in each well. After 4 hours incubation, the absorbance of the fluid in each well was determined at 490 nm using a microwell plate spectrophotometer reader (Molecular Devices, Sunnyvale, Calif., USA). In every experiment, each condition was run in triplicate wells.

[1] = test system: HIF overexpressing cell lines; experiment: Anti-proliferative assay (3H-Thymidine incorporation); type: cell-based; conditions: Homo sapiens; average across a panel of HIF overexpressing cell lines; 48 hours; read-out: Anti Proliferative Potential (3H-Thymidine), average IC50
Method: The anti-proliferative potential of compounds of present invention across a panel of cancer cell lines as described herein above was determined using ^3H-Thymidine incorporation. […] Cells were seeded at a density of 3000-5000 cells per well in 180 μL volume in transparent 96 well tissue culture plate (NUNC, USA) and incubated for 12-18 hours at 37° C., 5% CO2. Subsequently, 20 μL of compounds of present invention (diluted in medium at concentrations ranging from 30 μM, 10 μM, 3 μM, 1 μM, 0.3 μM or 0.1 μM) were added to each well. Cells were then incubated for 48 hours at 37° C., 5% CO2 After the incubation, all the medium from the plates was aspirated and ^3H-Thymidine was added to all wells at a concentration of 0.25 μCi/well in 200 μL it complete medium (RPMI with 10% FBS). Plates were incubated at 37° C., 5% CO2 for further 6-14 hours. Following this incubation period, cells from 96 well plates were harvested with the help of cell harvester (Packard, USA) on a 96 well glass-filter plate (Unifilter-96, GF/B, Packard, USA). The filter plates were dried completely at 60° C. for 1 hour or overnight at room temperature. After drying, the bottom of the plates was sealed with bottom seals and 0.05 mL/well of scintillate fluid was added per well (Microscint-O, Packard). The plates were sealed from the top, read on Scintillation counter (TopCount, Packard) and percent inhibition and IC50 were calculated.

mTOR = biological target: T1, mTOR (Homo sapiens, UniProt P42345); experiment: Cell based mTOR assay; conditions: IGF-I induced AKT/p70S6K1 phosphorylation; read-out: Inhibition of mTOR (cell-based): IC50
T1 construct: endogenous in cells
Method: The mTOR assay was designed as given in Biochem J., 2000, 350, 717-722 with modifications as described below.
Cells were seeded in a 96 well microtitre plate at a density of 50,000 cells/cm^2 in appropriate complete cell culture medium. The cells were allowed to adhere for 18-24 hours. The cells were pretreated (in triplicates) with the test compound at a concentration of 10 μM for 30 minutes followed by induction with 400 ng/ml IGF-I for 24 hours (to induce AKT and p70S6K1 phosphorylation). A typical assay would consist of a set of unstimulated well, a set of stimulated and a set each of wells treated with compound and the stimulator. The medium was discarded. The cells were fixed with 100 μl of 3.7% formaldehyde for 15 minutes. The formaldehyde was discarded by inverting the plate and tapping it on a thick tissue paper layer to remove traces. The cells were washed and permeabilized with 200 μL PBS-Triton solution (containing 0.1% triton-X 100 in 1× PBS) three times, incubating the cells each time for 5 minutes. 100 μL blocking solution (10% FCS in PBS-Triton) was added and incubated for 1 hour at room temperature. The blocking solution was discarded and cells were incubated with the primary antibody in PBS-Triton at a dilution of 1:500 for 1 hour at room temperature. [The primary antibody is Phospho-AKT (Ser 473); Cell Signaling; Cat. No. 9271; Phospho p70S6K1 (Thr 389), Cell Signaling, Cat. No. 9205]. The primary antibody solution was discarded and the cells were washed 3 times with PBS-Triton solution and incubated with the HRP-conjugated secondary antibody in PBS-Triton at a dilution of 1:500 for 1 hour at room temperature. The cells were washed 3 times with PBS-Triton followed by two washes with PBS (to remove traces of triton-X 100). The OPD (o-phenylene diamine dihydrochloride) substrate was prepared for detection of the signal by dissolving one tablet set (two tablets) of SigmaFast OPD (Sigma, Cat No. P9187) in 20 mL distilled water, and was protected from light. 100 μL OPD solution was added to the wells and the plate was incubated in the dark for 3-5 minutes (depending upon the development of the colour). The reaction was stopped by adding 50 μL 2 N sulphuric acid (H2SO4). The absorbance was measured at 490 nm. The values were expressed in the treated samples, in terms of percentage or fold decrease in AKT/p70 phosphorylation with respect to the induced sample.

PI3Kα kinase = PI3Kα kinase (Homo sapiens, UniProt P42336); experiment: PI3Kα kinase assay; type: biochemical; conditions: 10 μM ATP; read-out: Inhibition of PI3Kα (kinase): IC50
Sequence of PI3Kα kinase (P42336 whole entry): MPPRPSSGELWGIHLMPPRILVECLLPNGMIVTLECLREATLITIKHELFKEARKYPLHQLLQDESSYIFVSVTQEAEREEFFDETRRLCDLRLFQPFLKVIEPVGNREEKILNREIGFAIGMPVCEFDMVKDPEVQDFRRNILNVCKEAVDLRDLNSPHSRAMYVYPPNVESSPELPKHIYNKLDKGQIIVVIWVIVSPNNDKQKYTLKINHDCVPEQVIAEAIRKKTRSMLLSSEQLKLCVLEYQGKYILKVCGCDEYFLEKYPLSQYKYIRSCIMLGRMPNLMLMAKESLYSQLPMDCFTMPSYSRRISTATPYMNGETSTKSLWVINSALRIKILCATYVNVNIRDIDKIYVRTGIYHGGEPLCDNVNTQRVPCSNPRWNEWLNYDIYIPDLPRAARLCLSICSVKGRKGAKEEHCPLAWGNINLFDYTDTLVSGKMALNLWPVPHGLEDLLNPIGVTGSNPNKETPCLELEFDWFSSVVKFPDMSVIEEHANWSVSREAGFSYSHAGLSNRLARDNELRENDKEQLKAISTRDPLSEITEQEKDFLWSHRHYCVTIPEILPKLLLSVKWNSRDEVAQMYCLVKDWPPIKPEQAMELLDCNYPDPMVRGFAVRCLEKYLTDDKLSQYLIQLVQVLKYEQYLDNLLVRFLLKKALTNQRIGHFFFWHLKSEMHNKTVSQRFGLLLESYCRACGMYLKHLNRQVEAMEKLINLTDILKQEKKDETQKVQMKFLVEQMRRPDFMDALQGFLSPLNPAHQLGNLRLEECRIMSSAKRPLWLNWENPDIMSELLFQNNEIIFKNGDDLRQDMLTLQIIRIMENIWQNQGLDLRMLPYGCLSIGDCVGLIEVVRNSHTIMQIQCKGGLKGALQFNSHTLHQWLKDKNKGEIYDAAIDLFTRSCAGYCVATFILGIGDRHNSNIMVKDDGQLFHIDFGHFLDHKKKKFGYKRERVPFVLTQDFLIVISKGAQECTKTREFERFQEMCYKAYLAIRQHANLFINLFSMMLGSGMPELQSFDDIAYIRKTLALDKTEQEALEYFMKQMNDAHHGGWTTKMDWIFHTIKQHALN
Sequence of PI3Kα kinase (P27986 whole entry partner): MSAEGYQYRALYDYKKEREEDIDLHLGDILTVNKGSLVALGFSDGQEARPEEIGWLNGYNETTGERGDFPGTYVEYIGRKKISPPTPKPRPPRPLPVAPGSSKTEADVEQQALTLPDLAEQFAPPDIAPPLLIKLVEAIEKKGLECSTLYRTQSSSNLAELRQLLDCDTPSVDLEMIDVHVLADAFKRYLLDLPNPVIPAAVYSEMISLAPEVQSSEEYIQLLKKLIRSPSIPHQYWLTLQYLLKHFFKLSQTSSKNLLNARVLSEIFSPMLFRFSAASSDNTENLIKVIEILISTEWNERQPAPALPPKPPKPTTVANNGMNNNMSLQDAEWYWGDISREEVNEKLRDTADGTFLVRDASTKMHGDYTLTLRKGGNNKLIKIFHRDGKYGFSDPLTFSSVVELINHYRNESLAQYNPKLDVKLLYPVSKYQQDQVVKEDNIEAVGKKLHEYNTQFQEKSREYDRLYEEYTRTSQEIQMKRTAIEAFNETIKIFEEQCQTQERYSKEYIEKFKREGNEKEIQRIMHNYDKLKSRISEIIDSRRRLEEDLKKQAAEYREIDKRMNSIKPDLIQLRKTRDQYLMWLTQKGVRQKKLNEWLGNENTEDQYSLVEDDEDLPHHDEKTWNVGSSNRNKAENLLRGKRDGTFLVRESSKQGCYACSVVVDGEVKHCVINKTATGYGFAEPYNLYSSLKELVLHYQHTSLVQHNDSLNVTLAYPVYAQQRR
Method: The PI3K kinase assay was designed as given in Cell, 2006, 125, 733-747.
The kinase reaction was carried out in a 25 μL reaction in a 1.5 ml microcentrifuge tube. The reaction mixture consisted of kinase buffer (10 mM Hepes, pH 7.5, 50 mM MgCl2), 20 ng PI3Kα kinase, 12.5 μg phosphotidylinositol (PI), 10 μM adenosine triphosphate (ATP) and 1 μCi 32γP […]. The compounds of the present invention were added at appropriate concentrations. The reactions were incubated at 30° C. for 20 minutes and were stopped by adding 1:1 mixture of methanol and chloroform. The tube contents were mixed on a vortex mixer and centrifuged at 10000 rpm for 2 minutes. 10 μL of the organic (lower) phase was spotted on to a thin layer chromatography (TLC) plate. The spots were resolved in a mobile phase consisting of a 65:35 mixture of n-propanol and 2 M glacial acetic acid. The plates were dried and exposed to an X-ray film. The bands appearing as a result of 32 g P incorporation in PI were quantitated using the QuantityOne (BioRad) densitometry program.

Structure (SMILES): NC(=NO)c1ccc(NC(=O)CCl)cn1 [Example 4, 2-Chloro-N-(6-(N′-hydroxycarbamimidoyl)pyridin-3-yl)acetamide]
- Specificity Index (HIF-1α): >20
- IC50 at 48 h (Cytotoxicity assay (MTS)): 2200 ± 300 nM
- IC50 [1]: 2000 ± 500 nM
- IC50 (mTOR): 5000 nM

Structure (SMILES): O=C(CCl)Nc1ccc(-c2noc(C(F)(F)F)n2)nc1 [Example 29, 2-Chloro-N-[6-(5-(trifluoromethyl)-1,2,4-oxadiazol-3-yl)pyridin-3-yl]acetamide]
- Specificity Index (HIF-1α): >9
- IC50 at 48 h (Cytotoxicity assay (MTS)): 3500 ± 500 nM
- IC50 [1]: 1500 ± 400 nM

Structure (SMILES): Cc1nc(-c2ccc(NC(=O)CCl)cn2)no1 [Example 30, 2-Chloro-N-[6-(5-methyl-1,2,4-oxadiazol-3-yl)pyridin-3-yl]acetamide]
- Specificity Index (HIF-1α): >11
- IC50 at 48 h (Cytotoxicity assay (MTS)): 3000 ± 500 nM
- IC50 [1]: 1500 ± 200 nM

Structure (SMILES): O=C(CCl)Nc1ccc(-c2noc(C(F)(F)Cl)n2)nc1 [Example 41a, 2-Chloro-N-[6-(5-(chlorodifluoromethyl)-1,2,4-oxadiazol-3-yl)pyridin-3-yl]acetamide]
- Specificity Index (HIF-1α): >10
- IC50 at 48 h (Cytotoxicity assay (MTS)): 3500 ± 1000 nM

Structure (SMILES): O=C(CCl)Nc1ccc(-c2nc(O)cc(C(F)(F)F)n2)nc1 [Example 53, 2-Chloro-N-(6-(4-hydroxy-6-(trifluoromethyl)pyrimidin-2-yl)pyridin-3-yl)acetamide]
- Specificity Index (HIF-1α): >7
- IC50 at 48 h (Cytotoxicity assay (MTS)): 2000 ± 500 nM
- IC50 [1]: 2000 ± 300 nM

Structure (SMILES): C=CCOc1cc(C(F)(F)F)nc(-c2ccc(NC(=O)CCl)cn2)n1 [Example 60, N-(6-(4-(allyloxy)-6-(trifluoromethyl)pyrimidin-2-yl)pyridin-3yl-)-2-chloroacetamide]
- Specificity Index (HIF-1α): >15
- IC50 at 48 h (Cytotoxicity assay (MTS)): 2000 ± 200 nM
- IC50 [1]: 800 ± 200 nM
- IC50 (PI3Kα kinase): 1500 nM
- IC50 (mTOR): 5000 nM

Structure (SMILES): COc1cc(C(F)(F)F)nc(-c2ccc(NC(=O)CCl)cn2)n1 [Example 61, 2-Chloro-N-(6-(4-methoxy-6-(trifluoromethyl)pyrimidin-2-yl)pyridin-3yl)acetamide]
- IC50 at 48 h (Cytotoxicity assay (MTS)): 3000 ± 200 nM
- IC50 (PI3Kα kinase): 1000 nM
- IC50 (mTOR): 5000 nM

Structure (SMILES): C=CCOc1nc(-c2ccc(NC(=O)CCl)cn2)nc(C)c1CC [Example 64, N-(6-(4-(allyloxy)-5-ethyl-6-methylpyrimidin-2-yl)pyridin-3yl)-2-chloroacetamide]
- IC50 at 48 h (Cytotoxicity assay (MTS)): 1500 ± 200 nM
- IC50 [1]: 1000 ± 200 nM
- IC50 (PI3Kα kinase): < 1000 nM
- IC50 (mTOR): 5000 nM

Structure (SMILES): O=C(CCl)Nc1ccc(-c2nc(Cl)cc(C(F)(F)F)n2)nc1 [Example 71, 2-Chloro-N-(6-(4-chloro-6-(trifluoromethyl)pyrimidin-2-yl)pyridin-3-yl)acetamide]
- Specificity Index (HIF-1α): >6
- IC50 at 48 h (Cytotoxicity assay (MTS)): 1000 ± 200 nM
- IC50 [1]: 800 ± 200 nM
